Values quoted from earlier work in patent publication US20260174880A1, “ELECTROPHILIC REACTIVE LINKERS FOR LABELING OF POLYPEPTIDES AND METHODS OF USE THEREOF” (The Brigham and Women's Hospital, Inc., priority 2023, published 2026).
Read-outs that look alike come from different tables or passages of the source.

Columns and labels:
NF- B Pathway = details: at 5 μM
Recombinant PKC = biological target: T1, Recombinant PKC (Homo sapiens, UniProt Q05513); details: for % … 62.5 μM (cell…): at 62.5 μM
T1 sequence (Q05513 1-592): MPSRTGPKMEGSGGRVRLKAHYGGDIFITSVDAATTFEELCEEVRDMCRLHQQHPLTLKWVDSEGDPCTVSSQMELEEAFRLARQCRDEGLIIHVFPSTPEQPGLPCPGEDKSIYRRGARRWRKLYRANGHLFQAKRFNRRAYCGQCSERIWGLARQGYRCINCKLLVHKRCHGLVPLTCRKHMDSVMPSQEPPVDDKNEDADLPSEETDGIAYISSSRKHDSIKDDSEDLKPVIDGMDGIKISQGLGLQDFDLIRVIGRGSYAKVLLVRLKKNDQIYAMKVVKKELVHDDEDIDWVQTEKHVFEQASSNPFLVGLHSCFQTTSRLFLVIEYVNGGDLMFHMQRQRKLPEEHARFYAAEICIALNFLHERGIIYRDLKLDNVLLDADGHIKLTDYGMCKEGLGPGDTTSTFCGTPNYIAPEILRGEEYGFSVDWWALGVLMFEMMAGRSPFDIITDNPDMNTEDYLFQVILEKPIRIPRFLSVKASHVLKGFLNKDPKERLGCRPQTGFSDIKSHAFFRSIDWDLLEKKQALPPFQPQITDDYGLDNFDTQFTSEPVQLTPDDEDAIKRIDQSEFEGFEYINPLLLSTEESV

AKT1 = AKT1 (Homo sapiens, UniProt P31749); details: the 24th table, the 25th table
PDK1 [1] = biological target: T2, PDK1 (Homo sapiens, UniProt O15530); details: the 35th table; read-out: AC…
T2 sequence (O15530 1-556): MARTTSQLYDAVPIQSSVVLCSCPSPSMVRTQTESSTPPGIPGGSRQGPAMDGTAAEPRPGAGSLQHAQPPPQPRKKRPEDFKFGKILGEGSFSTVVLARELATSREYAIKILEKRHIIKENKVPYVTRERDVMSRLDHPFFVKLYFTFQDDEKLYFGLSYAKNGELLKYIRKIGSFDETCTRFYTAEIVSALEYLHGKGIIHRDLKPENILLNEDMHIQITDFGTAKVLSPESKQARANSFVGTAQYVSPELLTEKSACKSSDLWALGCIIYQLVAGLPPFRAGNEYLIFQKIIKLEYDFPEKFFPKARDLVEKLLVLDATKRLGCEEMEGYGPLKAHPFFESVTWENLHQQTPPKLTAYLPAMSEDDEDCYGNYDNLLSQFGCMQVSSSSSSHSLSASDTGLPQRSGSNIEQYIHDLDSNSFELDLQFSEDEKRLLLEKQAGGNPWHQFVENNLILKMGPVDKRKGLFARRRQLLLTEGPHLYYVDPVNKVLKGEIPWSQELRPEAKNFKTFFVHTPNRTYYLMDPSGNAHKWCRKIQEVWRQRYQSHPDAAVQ

PDK1 [2] = biological target: T2, PDK1; details: for T…: the 35th table c7; for …G: the 35th table c8
Akt = details: the 26th table
[3] = test system: NF-κB dependent transcription
MEK1 = MEK1 (Homo sapiens, UniProt Q02750)
MEK2 = MEK2 (Homo sapiens, UniProt P36507)
other kinases = details: at 1000 nM EAI045
[4] = test system: Molt-4 (T cell acute lymphoblastic leukemia) xenografts; details: SCID mice
PDK1 [5] = biological target: T2, PDK1
MERS-COV = details: in vitro
Aurora A = biological target: T3, Aurora A (Homo sapiens, UniProt O14965); details: the 30th table
T3 sequence (O14965 1-403): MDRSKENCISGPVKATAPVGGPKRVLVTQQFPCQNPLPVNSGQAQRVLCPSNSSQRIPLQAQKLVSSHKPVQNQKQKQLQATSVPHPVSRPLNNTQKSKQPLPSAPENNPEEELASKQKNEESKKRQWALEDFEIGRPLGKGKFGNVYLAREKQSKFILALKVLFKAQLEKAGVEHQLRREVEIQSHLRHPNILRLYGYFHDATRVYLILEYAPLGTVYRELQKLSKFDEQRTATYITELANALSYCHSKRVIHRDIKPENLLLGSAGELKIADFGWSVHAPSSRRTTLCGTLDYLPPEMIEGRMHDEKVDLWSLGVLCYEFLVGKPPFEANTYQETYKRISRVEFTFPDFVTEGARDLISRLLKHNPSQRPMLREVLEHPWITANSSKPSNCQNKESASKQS

[6] = not given; remark: listed apart in the source
[7] = test system: breast carcinoma, prostate carcinoma, colon carcinoma and pancreatic carcinoma xenografts; details: in vivo
p38α MAPK = p38α MAPK (Homo sapiens, UniProt Q16539)
Sequence of p38α MAPK (Q16539 whole entry): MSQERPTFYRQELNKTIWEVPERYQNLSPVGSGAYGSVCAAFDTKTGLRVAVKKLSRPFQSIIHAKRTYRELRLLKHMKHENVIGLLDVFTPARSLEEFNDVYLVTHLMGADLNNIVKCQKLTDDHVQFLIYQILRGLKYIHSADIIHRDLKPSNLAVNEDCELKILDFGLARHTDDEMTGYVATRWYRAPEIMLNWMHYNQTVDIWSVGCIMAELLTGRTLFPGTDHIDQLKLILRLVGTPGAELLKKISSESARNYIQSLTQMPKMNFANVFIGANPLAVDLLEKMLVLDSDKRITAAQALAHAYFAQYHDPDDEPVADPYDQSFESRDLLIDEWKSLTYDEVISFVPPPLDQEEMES

Sequence of AKT1 (P31749 whole entry): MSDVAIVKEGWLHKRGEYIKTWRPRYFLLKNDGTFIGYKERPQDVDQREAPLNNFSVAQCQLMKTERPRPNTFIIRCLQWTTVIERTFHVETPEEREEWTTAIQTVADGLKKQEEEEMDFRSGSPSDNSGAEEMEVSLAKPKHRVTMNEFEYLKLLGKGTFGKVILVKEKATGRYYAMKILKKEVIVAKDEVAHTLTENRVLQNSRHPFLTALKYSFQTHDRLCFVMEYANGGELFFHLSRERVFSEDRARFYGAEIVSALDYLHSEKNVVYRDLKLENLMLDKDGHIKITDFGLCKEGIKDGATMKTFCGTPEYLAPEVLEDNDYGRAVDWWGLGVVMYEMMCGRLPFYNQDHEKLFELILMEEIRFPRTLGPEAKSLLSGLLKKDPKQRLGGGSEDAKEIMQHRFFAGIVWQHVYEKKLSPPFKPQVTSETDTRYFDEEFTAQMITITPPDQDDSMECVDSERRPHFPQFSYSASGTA
Sequence of MEK1 (Q02750 whole entry): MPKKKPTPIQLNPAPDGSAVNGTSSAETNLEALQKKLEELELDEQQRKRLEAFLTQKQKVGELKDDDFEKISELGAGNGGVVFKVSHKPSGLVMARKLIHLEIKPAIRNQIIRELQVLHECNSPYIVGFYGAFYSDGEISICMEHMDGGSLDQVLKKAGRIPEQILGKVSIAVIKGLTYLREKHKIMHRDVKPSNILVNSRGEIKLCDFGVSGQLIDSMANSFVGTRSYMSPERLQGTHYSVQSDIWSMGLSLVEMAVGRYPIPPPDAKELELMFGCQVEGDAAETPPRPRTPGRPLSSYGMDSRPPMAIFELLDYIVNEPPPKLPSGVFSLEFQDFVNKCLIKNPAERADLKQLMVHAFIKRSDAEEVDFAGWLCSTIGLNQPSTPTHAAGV
Sequence of MEK2 (P36507 whole entry): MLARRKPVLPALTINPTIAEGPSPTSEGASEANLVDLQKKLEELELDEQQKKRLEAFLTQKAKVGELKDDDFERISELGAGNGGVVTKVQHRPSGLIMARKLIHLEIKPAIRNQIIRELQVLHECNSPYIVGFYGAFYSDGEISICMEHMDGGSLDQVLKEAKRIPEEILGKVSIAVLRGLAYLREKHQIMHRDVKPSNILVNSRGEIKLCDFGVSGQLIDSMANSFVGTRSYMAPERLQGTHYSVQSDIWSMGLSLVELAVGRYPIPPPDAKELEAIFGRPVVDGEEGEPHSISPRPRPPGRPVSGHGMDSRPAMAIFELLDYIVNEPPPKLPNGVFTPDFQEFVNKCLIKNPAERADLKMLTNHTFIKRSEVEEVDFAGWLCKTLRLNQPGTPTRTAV

In the case of `CC(C)(C)C1=NN(c2ccc(Cl)cc2)C(c2ccc(O)cc2)C1` (centres unmarked) [1a], the “% … 5 μM (NF…, U… cells)” value (NF- B Pathway) is given as 75.1%.
For `CC(C)(C)C1=NN(c2ccc(Br)cc2)C(c2ccc(O)cc2)C1` (centres unmarked) [1c], the “% … 62.5 μM (cell…)” value (Recombinant PKC) is given as 93.2%.
For `CC(C)(C)C1=NN(c2ccc(C(F)(F)F)cc2)C(c2ccc(O)cc2)C1` (centres unmarked) [1d], the “% … 62.5 μM (cell…)” value (Recombinant PKC) is listed as 94.2%.
For `Cc1ccc(N2N=C(C(C)(C)C)CC2c2ccc(O)cc2)cc1` (centres unmarked) [1e], the “% … 5 μM (NF…, U… cells)” value (NF- B Pathway) is given as 62.9%.
In the case of `CC(C)(C)C1=NN(c2ccc(C(=O)O)cc2)C(c2ccc(O)cc2)C1` (centres unmarked) [1g], the “% … 5 μM (NF…, U… cells)” value (NF- B Pathway) is given as 40.7%.
For `CC(C)(C)C1=NN(c2cccc(Cl)c2)C(c2ccc(O)cc2)C1` (centres unmarked) [1h], the IC50 (Recombinant PKC) is listed as 3.2 µM, the “% … 62.5 μM (cell…)” value (Recombinant PKC) is listed as 96.8% and the “% … 5 μM (NF…, U… cells)” value (NF- B Pathway) is listed as 64.6%.
For `CC(C)(C)C1=NN(c2cccc(C(F)(F)F)c2)C(c2ccc(O)cc2)C1` (centres unmarked) [1j], the “% … 62.5 μM (cell…)” value (Recombinant PKC) is listed as 96.1%.
For `Cc1cccc(N2N=C(C(C)(C)C)CC2c2ccc(O)cc2)c1` (centres unmarked) [1k], the “% … 62.5 μM (cell…)” value (Recombinant PKC) is given as 91.7% and the “% … 5 μM (NF…, U… cells)” value (NF- B Pathway) is given as 71.7%.
For `CC(C)(C)C1=NN(c2ccc(Cl)cc2Cl)C(c2ccc(O)cc2)C1` (centres unmarked) [1n], the “% … 62.5 μM (cell…)” value (Recombinant PKC) is given as 71.0%.
In the case of `Cc1ccc(N2N=C(C(C)(C)C)CC2c2ccc(O)cc2)c(C)c1` (centres unmarked) [1p], the “% … 62.5 μM (cell…)” value (Recombinant PKC) is given as 59.9% and the “% … 5 μM (NF…, U… cells)” value (NF- B Pathway) is given as 41.5%.
In the case of `CC(C)(C)c1ccc(-n2c(-c3ccncc3)nc3cccnc32)cc1` [3a], the IC50 (AKT1) is listed as greater than 300 µM.
In the case of `COc1ccccc1Cn1c(-c2cccnc2N)nc2cccnc21` [3c], the IC50 (AKT1) is given as 38 µM.
For `NCc1ccc(-n2c(-c3cccnc3)nc3cccnc32)cc1` [5b], the IC50 (AKT1) is listed as 8.8 µM.
For `O=C(O)/C=C(/CCc1ccc(Cl)c(Cl)c1)c1ccccc1` [7Z], the EC50 (PDK1 [1]) is given as 2.8 µM, the “…H…” value (PDK1 [2]; the 35th table c6) is given as -3.71 kcal/mol and the “T…” value (PDK1 [2]) is given as 2.80 kcal/mol. The “…G” value (PDK1 [2]) was -6.56 kcal/mol and the “…H…” value (PDK1 [2]; the 35th table c9) was 56.6%.
In the case of `O=C(O)/C=C(/CCc1ccc(Cl)cc1Cl)c1ccccc1` [8Z], the EC50 (PDK1 [1]) is listed as 4.7 µM, the “…H…” value (PDK1 [2]; the 35th table c6) is listed as -2.08 kcal/mol and the “T…” value (PDK1 [2]) is listed as 4.93 kcal/mol. The “…G” value (PDK1 [2]) was -7.07 kcal/mol and the “…H…” value (PDK1 [2]; the 35th table c9) was 29.5%.
In the case of `CC(=O)NCc1ccc(-n2c(-c3cccnc3N)nc3cccnc32)cc1` [8d], the IC50 (AKT1) is listed as 0.81 µM.
In the case of `Nc1ncccc1-c1nc2cccnc2n1-c1cccc(CNC(=O)c2ccccc2)c1` [8g], the IC50 (AKT1) is given as 13 µM.
In the case of `Nc1ncccc1-c1nc2cccnc2n1-c1ccc(CNCc2ccccc2)cc1` [8h], the IC50 (AKT1) is listed as 0.26 µM.
For `O=C(O)/C=C(/CCc1ccc2ccccc2c1)c1ccccc1` [12Z], the EC50 (PDK1 [1]) is given as 8 µM, the “T…” value (PDK1 [2]) is given as 1.96 kcal/mol and the “…G” value (PDK1 [2]) is given as -6.87 kcal/mol. The “…H…” value (PDK1 [2]; the 35th table c9) was 58.3%.
For `Nc1ncccc1-c1nc2cc(C3CCCC3)cnc2n1-c1ccc(CNC(=O)c2ccccc2)cc1` [12d], the IC50 (Akt) is given as greater than 100 µM.
In the case of `Nc1ncccc1-c1nc2cc(-c3cccnc3)cnc2n1-c1ccc(CNC(=O)c2cccc(F)c2)cc1` [12g], the IC50 (Akt) is given as 0.4 µM.
In the case of `Cc1ccc2nc(NCCN)c3ncc(C)n3c2c1` [BMS-345541], the “NF-κB dependent transcription in mice” value [3] is given as “block NF-κB dependent transcription”.
For `Cn1cnc2c(F)c(Nc3ccc(Br)cc3F)c(C(=O)NOCCO)cc21` [Binimetinib], the pIC50 (MEK1) is listed as 7.9 and the pIC50 (MEK2) is listed as 7.9.
For `O=C(Nc1nccs1)C(c1cc(F)ccc1O)N1Cc2ccccc2C1=O` (centres unmarked) [EAI045], the “inhibition of any other kinases in screening panels” value (other kinases) is given as no more than 20%.
In the case of `Nc1ccc(/C=C/C(=O)NCc2cc3cc(-c4ccc(C(=O)N5CCC(F)(F)CC5)cc4)cc(-c4ccc(F)cc4)c3o2)cn1` [KPT-9274], the Molt-4 xenografts [4] is listed as “induces shrinkage”.
For `O=S(=O)(Nc1nc2ccc(Cl)cc2s1)c1cc2ccccc2s1` [RS2], the Kd (PDK1 [5]) is listed as 9 µM.
For `CO[C@H]1C[C@@H]2CC[C@@H](C)[C@@](O)(O2)C(=O)C(=O)N2CCCC[C@H]2C(=O)O[C@H]([C@H](C)C[C@@H]2CC[C@@H](O)[C@H](OC)C2)CC(=O)[C@H](C)/C=C(\C)[C@@H](O)[C@@H](OC)C(=O)[C@H](C)C[C@H](C)/C=C/C=C/C=C/1C` [Sirolimus], the “MERS-COV infection of Huh7 cells” value (MERS-COV) is given as “inhibits MERS-COV infection”.
In the case of `CC(=O)Nc1cccc(-n2c(=O)n(C3CC3)c(=O)c3c(Nc4ccc(I)cc4F)n(C)c(=O)c(C)c32)c1` [Trametinib], the “Absorption/distribution of an oral dose of trametinib tablet” value is listed as 72%.
In the case of `O=C(O)c1cc(-c2cccc(C(F)(F)F)c2)nc2ccccc12` [compound 34], the IC50 (C26) is listed as 0.00033 µM, the IC50 (Aurora A) is listed as 26.5 µM and the Ki (Aurora A; read-out: Calculated K…) is listed as 507 µM. For the same molecule, the “Sol (pH 6.5)” value [6] was 190 μg/mL.
In the case of `O=C1NC(=O)[C@@H](c2cn3c4c(cccc24)CCC3)[C@@H]1c1c[nH]c2ccccc12` [tivantinib], the “growth of carcinoma xenografts” value [7] is listed as “inhibition of growth”.
In the case of Skepinone-B, the residence times (p38α MAPK) is given as 150 s.
